Test results reported in the supplement of paper PMC4932681.

How the values were obtained:
ZR-75-1 [1] = experiment: drug sensitivity score (DSS) (DSS (dimensionless)); higher = more sensitive; extreme values may be limits of the assay; conditions: 72 h
Procedure, shortened: (§1)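 CellTiter-Glo viability was the readout, taken on a PHERAstar and normalised to vehicle-only and positive controls. It was measured after breast cancer cell lines and their resistant derivatives spent 72 h at 37 °C in 384-well plates containing library drugs at five concentrations spanning a 10 000-fold range, with 1 μM of the selecting drug in the medium of resistant lines. From logistic dose–response fits in the Breeze pipeline came drug sensitivity score, relative IC50 (curve midpoint) and top-dose inhibition.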

T-47D Tam2 [2] = experiment: as above; conditions: 4-OH-tamoxifen in medium 1 µM; 72 h
Procedure, shortened: as §1

MCF-7 Tam1 [3] = experiment: as above; conditions: 4-OH-tamoxifen in medium 1 µM; 72 h
Procedure, shortened: as §1

T-47D Tam1 [4] = experiment: as above; conditions: 4-OH-tamoxifen in medium 1 µM; 72 h
Procedure, shortened: as §1

BT-474 [5] = experiment: as above; conditions: 72 h
Procedure, shortened: as §1

MCF-7 [6] = experiment: as above; conditions: 72 h
Procedure, shortened: as §1

BT-474 Tam1 [7] = experiment: as above; conditions: 4-OH-tamoxifen in medium 1 µM; 72 h
Procedure, shortened: as §1

ZR-75-1 Tam1 [8] = experiment: as above; conditions: 4-OH-tamoxifen in medium 1 µM; 72 h
Procedure, shortened: as §1

BT-474 Tam2 [9] = experiment: as above; conditions: 4-OH-tamoxifen in medium 1 µM; 72 h
Procedure, shortened: as §1

T-47D [10] = experiment: as above; conditions: 72 h
Procedure, shortened: as §1

ZR-75-1 Tam2 [11] = experiment: as above; conditions: 4-OH-tamoxifen in medium 1 µM; 72 h
Procedure, shortened: as §1

ZR-75-1 [12] = experiment: relative IC50 (midpoint of fitted logistic curve, plateau may be below 50% inhibition; CellTiter-Glo viability); higher = less potent; conditions: 72 h
Procedure, shortened: as §1

T-47D Tam2 [13] = experiment: as above; conditions: 4-OH-tamoxifen in medium 1 µM; 72 h
Procedure, shortened: as §1

MCF-7 Tam1 [14] = experiment: as above; conditions: 4-OH-tamoxifen in medium 1 µM; 72 h
Procedure, shortened: as §1

T-47D Tam1 [15] = experiment: as above; conditions: 4-OH-tamoxifen in medium 1 µM; 72 h
Procedure, shortened: as §1

BT-474 [16] = experiment: as above; conditions: 72 h
Procedure, shortened: as §1

MCF-7 [17] = experiment: as above; conditions: 72 h
Procedure, shortened: as §1

BT-474 Tam1 [18] = experiment: as above; conditions: 4-OH-tamoxifen in medium 1 µM; 72 h
Procedure, shortened: as §1

ZR-75-1 Tam1 [19] = experiment: as above; conditions: 4-OH-tamoxifen in medium 1 µM; 72 h
Procedure, shortened: as §1

BT-474 Tam2 [20] = experiment: as above; conditions: 4-OH-tamoxifen in medium 1 µM; 72 h
Procedure, shortened: as §1

T-47D [21] = experiment: as above; conditions: 72 h
Procedure, shortened: as §1

ZR-75-1 Tam2 [22] = experiment: as above; conditions: 4-OH-tamoxifen in medium 1 µM; 72 h
Procedure, shortened: as §1

Structure (SMILES) | drug sensitivity score (ZR-75-1 [1]; 4-OH-tamoxifen in medium 0 µM) | drug sensitivity score (ZR-75-1 [1]; 4-OH-tamoxifen in medium 1 µM) | drug sensitivity score (T-47D Tam2 [2]) | drug sensitivity score (MCF-7 Tam1 [3]) | drug sensitivity score (T-47D Tam1 [4]) | drug sensitivity score (BT-474 [5]; 4-OH-tamoxifen in medium 0 µM) | drug sensitivity score (BT-474 [5]; 4-OH-tamoxifen in medium 1 µM) | drug sensitivity score (MCF-7 [6]; 4-OH-tamoxifen in medium 0 µM) | drug sensitivity score (MCF-7 [6]; 4-OH-tamoxifen in medium 1 µM) | drug sensitivity score (BT-474 Tam1 [7]) | drug sensitivity score (ZR-75-1 Tam1 [8]) | drug sensitivity score (BT-474 Tam2 [9]) | drug sensitivity score (T-47D [10]; 4-OH-tamoxifen in medium 0 µM) | drug sensitivity score (T-47D [10]; 4-OH-tamoxifen in medium 1 µM) | drug sensitivity score (ZR-75-1 Tam2 [11]) | relative IC50 (ZR-75-1 [12]; 4-OH-tamoxifen in medium 0 µM) [nM] | relative IC50 (ZR-75-1 [12]; 4-OH-tamoxifen in medium 1 µM) [nM] | relative IC50 (T-47D Tam2 [13]) [nM] | relative IC50 (MCF-7 Tam1 [14]) [nM] | relative IC50 (T-47D Tam1 [15]) [nM] | relative IC50 (BT-474 [16]; 4-OH-tamoxifen in medium 0 µM) [nM] | relative IC50 (BT-474 [16]; 4-OH-tamoxifen in medium 1 µM) [nM] | relative IC50 (MCF-7 [17]; 4-OH-tamoxifen in medium 0 µM) [nM] | relative IC50 (MCF-7 [17]; 4-OH-tamoxifen in medium 1 µM) [nM] | relative IC50 (BT-474 Tam1 [18]) [nM] | relative IC50 (ZR-75-1 Tam1 [19]) [nM] | relative IC50 (BT-474 Tam2 [20]) [nM] | relative IC50 (T-47D [21]; 4-OH-tamoxifen in medium 0 µM) [nM] | relative IC50 (T-47D [21]; 4-OH-tamoxifen in medium 1 µM) [nM] | relative IC50 (ZR-75-1 Tam2 [22]) [nM]
COc1ncc(-c2ccc3nccc(-c4ccnnc4)c3c2)cc1NS(=O)(=O)c1ccc(F)cc1F | 19.3 | 16.3 | 15.7 | 13.1 | 22.4 | 18.5 | 25.9 | 18.1 | 19.8 | 31 | 18.6 | 25 | 19.3 | 15.6 | 19.4 | 7.56 | 10.7 | 15.3 | 9.12 | 3.99 | 15.1 | 5.69 | 5.97 | 8.41 | 2.07 | 10.4 | 7.03 | 5.87 | 19.7 | 10.7
C#Cc1cccc(Nc2ncnc3cc(OC)c(OCCCCCCC(=O)NO)cc23)c1 [CUDC-101] | 3.69 | 4.14 | 8.37 | 2.26 | 11.7 | 9.66 | 21.9 | 7.91 | 8.89 | 12.6 | 4.08 | 10.2 | 10.3 | 12.3 | 4.71 | 1600 | 1920 | 1180 | 3520 | 656 | 1190 | 137 | 1720 | 1540 | 680 | 1150 | 1130 | 1190 | 803 | 1740
CNNCc1ccc(C(=O)NC(C)C)cc1 [Procarbazine] | 0 | 0 | 0 | 0 | 0 | 0 | 0 | 0 | 0 | 0 | 0 | 0 | 0 | 0 | 0 | > 10000 | > 10000 | > 10000 | > 10000 | > 10000 | > 10000 | > 10000 | > 10000 | > 10000 | > 10000 | > 10000 | > 10000 | > 10000 | > 10000 | > 10000
